The values that follow come from US8623911B2, “Boron-containing small molecules as anti-protozoal agent” (Anacor Pharmaceuticals, Inc., priority 2010, dated 2014).

One data set concerns P-gp (human MDR1). Briefly: in vitro. The data set is classed as in vitro ADME, canine. As to conditions: dog, MDCK-MDR1; 3 μM test compound; without GF120918; read-out: MDCK-MCR1 Papp. As for the experimental part: (§1) MDCK-MDR1 cells (Madin-Darby canine kidney cells transfected with the human MDR1 gene) (Dr. Piet Borst, NKI-AVL, Amsterdam, The Netherlands) were seeded at 300,000 cells per well onto microporous, polycarbonate membranes in 12 well Costar Transwell® plates (Corning, Corning, N.Y.). The medium was removed and replaced with fresh cell culture medium approximately 24 hours after plating. Cells attained confluency and were ready for use in the transport assay after 72 hours of incubation.
(§2) A stock solution of each compound was prepared in DMSO at a concentration of 10 mg/mL. Stock solutions were further diluted in DMSO to a concentration of 1 mM for use in the assay. The final assay concentration of test compound in each incubation mixture was 3 μM and the final concentration of DMSO was 0.3%.
(§3) Cell cultures were pre-incubated with Transport Medium (TM), consisting of Hanks Balanced Salt Solution (HBSS), 25 mM glucose, and 25 mM HEPES, with and without the known P-gp inhibitor GF120918 (2 μM final assay concentration), for 30-60 minutes prior to the addition of test and control compounds. Following the pre-incubation period, transepithelial electrical resistance (TEER) measurements were taken on each insert to insure the integrity of the monolayer. The range for TEER values was 45-85Ω·cm^2. Transport medium was removed. Fresh transport media (1.5 mL) with or without GF120918 was added to the basolateral chambers. Solutions of the test compound were diluted into TM and added to the appropriate wells in triplicate (400 μL/well) at a final concentration of 3 μM with and without GF120918. The final concentration of DMSO was 0.3%. Control compounds were tested in triplicate at a final concentration of 3 μM. Cell monolayers were incubated with shaking (160 rpm) at 37° C. with 5% CO2 in a humidified incubator for one hour. Following the incubation, all plates were removed from the incubator. Inserts were removed from the plates and TEER measurements were again taken on each insert prior to removing samples for analysis to ensure no degradation of the tight junctions during the assay. An aliquot was taken from each receiver and diluted 1:3 with organic solvent (methanol) to assess transport of each compound across the monolayer. An aliquot was taken from each donor and diluted 1:2 with organic solvent (methanol) and then again 1:50 with matrix (50% methanol/50% TM) to assess mass balance within the study. All samples were assayed for test compound concentrations by LC-MS/MS using electrospray ionization.

In a further data set the test system is MDCK-MDR1 cells. Briefly: in vitro. The class given is in vitro ADME, canine. The note with it: 3 μM test compound. As for the experimental part:
as §1, §2, §3

Data set [1] relates to LAB 110 Eatro strain of T. b. brucei. Briefly: Acute Murine Model A [Murine Stage 1 HAT]. The data set is classed as in vivo. As for the experimental part:
Female Swiss Webster mice were inoculated with 250,000 parasites of the LAB 110 Eatro strain of T. b. brucei. 24 hrs post-infection, treatment was initiated by administration of a compound of the invention BID for 4 days with 20 mg/kg/dose (40 mg/kg/day) intraperitoneally (IP) or orally (PO), 5 mg/kg BID or 10 mg/kg BID orally (PO). 3 mice per group were treated with a particular compound of the invention. Mice were checked for parasitemia weekly by microscopic examination of smears prepared from tail vein blood. Animals remaining parasite free for more than 30 days beyond the end of the treatment period were considered cured. Control untreated animals typically succumbed to the infection within 4-5 days following i.p. inoculation with parasites. Mice were monitored for 30 days for survival. Pentamidine at 2 mg/kg IP was used as the positive control. After 10 days, 0% of the untreated mice were parasite free. After 10 days, 67% of mice treated PO with 10 mg/kg BID of N-(1-Hydroxy-3,4-dihydro-1H-benzo[c][1,2]oxaborinin-7-yl)-4-methoxy-benzamide (M19) were parasite free. After 30 days, 100% of mice treated PO with 10 mg/kg BID of 4-fluoro-N-(1-hydroxy-3,4-dihydro-1H-benzo[c][1,2]oxaborinin-7-yl)-2-trifluoromethyl-benzamide (M1) were parasite free.

The Papp is the rate of passage across a membrane or cell layer, normalised by area and donor concentration. Regarding `O=C(Nc1ccc2c(c1)B(O)OCC2)c1ccc(F)cc1C(F)(F)F` [M1, 4-Fluoro-N-(1-hydroxy-3,4-dihydro-1H-benzo[c][1,2]oxaborinin-7-yl)-2-trifluoromethyl-benzamide], the apparent permeability (Papp) at 1 h, 3 µM in the data set with P-gp (human MDR1) was 55.7 ×10⁻⁶ cm/s. Further, the “MDCK-MCR1 AQ” value in the data set on MDCK-MDR1 cells is given as −0.02. Moreover, the “mice parasite free after 30 days” value in data set [1] (female Swiss Webster mice, PO 10 mg/kg BID for 4 days, after 30 days) amounted to 100%. Also, the “Mean Survival Days” value in data set [1] (mice infected with T. b. brucei, 10 mg/kg, BID, orally, 4 days) stood at 30 days.
